The conditions of series [1]: rat; cited from earlier work.
The nature of series [2]: LD50 in rat. As to conditions: conversion in brackets.
Series [3] is described as follows: LD50 (species not stated). As to conditions: conversion in brackets. Format: in vivo.
The conditions of series [4]: cited from earlier work.
The subject of series [5] is phage λ. Kind of series: Intracapsid DNA transition temperature by ITC and SAXS. On the set-up: species or system bacteriophage λ. The settings on record: 78% WT DNA length phage λ, 20 mM EDTA added to 10 mM MgCl2 Tris-buffer. From the text:
WT bacteriophage λ cI857, with a genome length of 48.5 kb was produced by thermal induction of lysogenic E. coli strain AE1 derived from the 52773 strain. Two phage λ mutants with shorter genome lengths (78 and 94% of the WT DNA length) were produced using a similar procedure. The receptor was the LamB protein purified from pop 154, a strain of E. coli K12 in which the LamB gene has been transduced from Shigella sonnei 3070. Phage and LamB purification details are described in Evilevitch A., et al., Osmotic pressure inhibition of DNA ejection from phage. Proc. Natl. Acad. Sci. U.S.A. 2003; 100:9292-9295 and Ivanovska I., et al., Internal DNA pressure modifies stability of WT phage. Proc. Natl. Acad. Sci. U.S.A. 2007; 104:9603-9608.
All calorimetric measurements were performed using the MicroCal iTC200 system manufactured by GE Healthcare, Life Sciences. […] J. Mol. Biol. 2010; 395:1079-1087.
Small angle X-ray scattering (SAXS) measurements were carried out at the 12-ID B station at the Advanced Photon Source at Argonne National Laboratory. A 12-KeV X-ray beam was used to illuminate the sample with an overall scattering vector q range from 0.006 to 0.850 Å-1. A total of 120 μl of phage solution (˜5×1013 pfu/ml) was injected into a flow-through glass capillary and the solution was oscillated during the SAXS measurement with a flow rate of 10 μl/s. Forty scans with 1 s X-ray exposure time were collected and averaged for each sample. A buffer solution of the dialysis buffer for phage samples was measured using the same SAXS setup, which was further subtracted as the background. After the background subtraction, the scattered intensity I versus q was plotted and the DNA peak region was truncated from 0.18 Å-1 to 0.33 Å-1. This DNA diffraction peak was fitted with a Gaussian curve plus a linear background using function (1), where q0 is the peak center, w is the peak width, A0 is the peak area, k is the slope of the linear background and c is the offset.
(§1) [formula] […] Single-Molecule Fluorescence Measurements of Phage Ejection Ensemble Kinetics.
ITC and SAXS assays were used to determine DNA transition temperatures for WT λ-DNA length phage in MgCl2 Tris-buffer with MgCl2 concentrations varied between 5 and 50 mM, see FIGS. 3A-3C. The intracapsid DNA transition occurs at temperature T*, corresponding to either a discontinuity in the linear dependence of ΔHej on temperature (FIG. 3A) or to an abrupt change in the linear decay of the DNA diffraction peak area versus temperature measured by SAXS (FIG. 3B). DNA transition temperatures as a function of Mg-concentration determined by both techniques are in good agreement with each other and are summarized in FIG. 3C. […] However, the inventors have previously shown that at DNA packing density in phage λ, the screening effect of Mg-ions will become progressively smaller with increasing Mg-concentration due to the counter-ion saturation (Evilevitch A., et al., Effects of salt concentrations and bending energy on the extent of ejection of phage genomes. Biophys. J. 2008; 94:1110-1120). Furthermore, if the Mg ion concentration continues to increase, the counterions are forced into regions on the helices that begin to increase the effective repulsions between packaged DNA strands. […]
For orientation: Isothermal titration calorimetry measures the heat released or taken up as one component is titrated into another.

Series [6] concerns packaged viral DNA in the capsid. The settings on record: low-salt buffer, Mg2+ removed by EDTA.
Text: as §1
Phage particles were imaged using a Nikon 2000E2 microscope with a spinning disk confocal scan head (Yokagawa Industries, Tokyo, Japan).

Series [7] concerns HSV-1, HSV-2, VZV, HCMV. Put plainly: Antiviral screening study of condensing compounds. Format: cell-based. The settings on record: result in words. The procedure: PAMAM Dendrimer G0, branched polyethylenimine (bPEI), Arg5+, DAB-AM-4, and DAB-AM-8 were utilized as test compounds. These compounds are described above.
Monolayers of HFF cells were prepared in six-well plates and incubated at 37° C. for 2 d to allow the cells to reach confluency. Media was then aspirated from the wells and 0.2 ml of virus was added to each of three wells to yield 20-30 plaques in each well. The virus was allowed to adsorb to the cells for 1 h and the plates were agitated every 15 minutes. Compounds were diluted in assay media consisting of MEM with Earl's salts supplemented with 2% FBS, L-glutamine, penicillin, and gentamycin. Solutions ranging from 300 μM to 0.1 μM were added to duplicate wells and the plates were incubated for various times, depending on the virus used. For HSV-1 and -2, the monolayers were then stained with 1% crystal violet in 20% methanol and the unbound dye removed by washing with dH2O. For all other assays, the cell monolayer was stained with 1% Neutral Red solution for 4 h then the stain was aspirated and the cells were washed with PBS. For all assays, plaques were enumerated using a stereomicroscope and the concentration of compound that reduced plaque formation by 50% (EC50) was interpolated from the experimental data.

Series [8] concerns cell membrane. As to conditions: not told; cited from earlier work.

Read-outs that look alike come from different tables or passages of the source. Where no end group is shown, it is not given here.

By LD50 is commonly meant the dose at which mortality reaches 50%.

Turning to `CCCCCCCCCCCCCCCC[N+](C)(C)C.[Br-]` [CTAB, hexadecyltrimethylammonium bromide], the LD50 in series [1] was 410 mg/kg. This compound registered an LD50 as concentration in series [2] of approximately 1.1 mM.
In series [3], `O=C(O)CN(CCOCCOCCN(CC(=O)O)CC(=O)O)CC(=O)O` [EGTA, Ethylene glycol-bis(2-aminoethylether)-N,N,N′,N′-tetraacetic acid] showed an LD50 as concentration of approximately 9.5 mM. Further, in series [4] (in vivo), the LD50 is 3587 mg/kg.
With `O=C(O)CN(CCN(CC(=O)O)CC(=O)O)CC(=O)O` [EDTA, Ethylenediaminetetraacetic acid], in series [5], the “DNA transition temperature T*” value is approximately 36 °C. In series [6], the “DNA ejection from the capsid” value is “essentially stalled” and the infection entry is “no infection is observed”.
In the case of `CCCCCCCCCCCC[N+](C)(C)C.[Br-]` [DTAB, dodecyltrimethylammonium bromide], the LD50 in series [1] was 200 to 1000 mg/kg. The same compound registered an LD50 as concentration in series [2] of 0.6 to 3.2 mM.
As for RRRRR [Arg5+], the “antiviral activity in the screening study” value in series [7] is on record as “showed antiviral activity”. In addition, in series [8], the “permeation of the cell membrane” value is “permeate the cell membrane”.
`CCCCCCCCCCCCCC[N+](C)(C)C.[Br-]` [TTAB, myristyltrimethylammonium bromide]: the LD50 in series [1] is 3900 mg/kg. For the same compound, in series [2], the LD50 as concentration was approximately 11.6 mM.
`O=C(O)[C@@H](S)[C@@H](S)C(=O)O` [DMSA, meso-2,3-Dimercaptosuccinic acid] yielded an LD50 as concentration in series [3] of approximately 27.5 mM. Also, the LD50 in series [4] (species and route not given) is 5011 mg/kg.

(Values after US10702572B2, “Methods and compounds to suppress viral genome release and packaging” (Carnegie Mellon University, priority 2015, dated 2020).)
